Source: patent publication US5436238A, “Halichondrins and related compounds” (President and Fellows of Harvard College, priority 1993, dated 1995)

Key:
LOX human melanoma cells = experiment: In vitro growth inhibition, LOX melanoma cells; format: cell-based; details: Table 1, LOX, synthetic halichondrin B
Experimental: (§1) Synthetic halichondrin B I was tested in growth inhibition assays against several different tumor cell lines to obtain IC50 values. For comparison, the National Cancer Instititute reported growth inhibitory effects of natural halichondrin B against L1210 murine leukemia cells at IC50 =0.3 nM [J. Biol. Chem. 266:15882-15889 (1991)] and Hirata and Uemura reported IC50 =0.08 nM against B-16 murine melanoma cells [Pure Appl. Chem. 58:701-710 (1986)]. Both references are hereby incorporated in their entirety.
In addition, several synthetic halichondrin-related compounds were tested. […] For the structures of compounds 13-16, see FIG. 3.

HL-60 cells = experiment: In vitro growth inhibition, HL-60 monocytic leukemia cells; format: cell-based; details: HL-60, human monocytic leukemia
Experimental: as §1

HT-29 cells = experiment: In vitro growth inhibition, HT-29 colon carcinoma cells; format: cell-based; details: HT-29, human colon carcinoma
Experimental: as §1

DK-l cells = experiment: In vitro growth inhibition, DK-l ras-transforming fibroblasts; format: cell-based; details: human ras-transforming fibroblasts
Experimental: as §1

SK-OV-3 cells = experiment: In vitro growth inhibition, SK-OV-3 ovarian carcinoma cells; format: cell-based; details: SK-OV-3, human ovarian carcinoma
Experimental: as §1

Caov-3 cells = experiment: In vitro growth inhibition, Caov-3 ovarian carcinoma cells; format: cell-based; details: Caov-3, human ovarian carcinoma
Experimental: as §1

OVCA 433 cells = experiment: In vitro growth inhibition, OVCA 433 ovarian carcinoma cells; format: cell-based; details: OVCA 433, human ovarian carcinoma
Experimental: as §1

NIH:OVCAR-3 cells = experiment: In vitro growth inhibition, NIH:OVCAR-3 ovarian carcinoma cells; format: cell-based; details: NIH:OVCAR-3, human ovarian carcinoma
Experimental: as §1

MCF-7 cells = experiment: In vitro growth inhibition, MCF-7 breast carcinoma cells; format: cell-based; details: MCF-7, human breast carcinoma
Experimental: as §1

MG-63 cells = experiment: In vitro growth inhibition, MG-63 osteosarcoma cells; format: cell-based; details: MG-63, human osteosarcoma
Experimental: as §1

[1] = tested on: subcutaneous LOX human melanoma tumors; experiment: In vivo anti-tumor effect on subcutaneous LOX human melanoma tumors in nude mice
Experimental: Mice received 1×10^6 LOX cells via s.c. injection on day 0, with complete injection randomization across sexes and treatment groups. On days 3-7 and 10-14, male and female experimental mice received 25 μg/kg of synthetic halichondrin B 1 via i.p. injection in saline; controls received saline alone.

[2] = tested on: L1210 murine leukemia cells; details: natural halichondrin B, J. Biol. Chem. 266:15882-15889 (1991), read-out: growth inhibitory effects, IC50; cited from earlier work
[3] = tested on: B-16 murine melanoma cells; details: Pure Appl. Chem. 58:701-710 (1986), read-out: IC50 against B-16 cells; cited from earlier work

Compound: C=C1C[C@@H]2CC[C@@]34C[C@H]5O[C@H]6[C@@H](O3)[C@H]3O[C@H](CC[C@@H]3O[C@H]6[C@H]5O4)CC(=O)O[C@@H]3[C@@H](C)[C@@H]4O[C@@H]5C[C@]6(C[C@@H]7O[C@]8(C[C@H](C)[C@@H]9O[C@H]([C@@H](O)C[C@@H](O)CO)C[C@@H]9O8)C[C@H](C)[C@@H]7O6)O[C@@H]5C[C@@H]4O[C@H]3C[C@H]3O[C@@H](CC[C@@H]1O2)C[C@@H](C)C3=C [halichondrin B]
- IC50 (LOX human melanoma cells): 0.08 nM
- IC50 (HL-60 cells): 0.12 nM
- IC50 (HT-29 cells): 0.19 nM
- IC50 (DK-l cells): 0.18 nM
- IC50 (SK-OV-3 cells): 0.12 nM
- IC50 (Caov-3 cells): 0.25 nM
- IC50 (OVCA 433 cells): 0.16 nM
- IC50 (NIH:OVCAR-3 cells): 0.06 nM
- IC50 (MCF-7 cells): 0.2 nM
- IC50 (MG-63 cells): 0.13 nM
- tumor growth ([1]; 25 μg/kg i.p. in saline, days 3-7 and 10-14, both sexes): prevented tumor growth almost completely in both sexes
- tumor growth after initial development period ([1]; 25 μg/kg i.p., days 3-7 and 10-14, after initial development into visible but very small tumors): failed to grow after an initial period of development into visible but very small tumors
- tumor regression ([1]; 25 μg/kg i.p., after the initial development period): actually regressed
- IC50 [2]: 0.3 nM
- IC50 [3]: 0.08 nM
